One assay relates to SNB-19. In words: Single dose cell viability assay, SNB-19. The conditions noted are these: SNB-19 (CNS), single dose 25 μM. It is filed as cell-based. The procedure:
(§1) Lead abbapolin compounds were tested in multiple cancer cell lines, including non-small cell lung cancer (NSCLC) cells, melanoma cells, colon cancer cells, central nervous system (CNS) cancer cells, prostate cancer cells, renal cancer cells, and breast cancer cells. Each of these cancer cells lines were sensitive to the lead abbapolin compounds in a cell viability assay, including 6184 (Table 3), 6277 (Table 4), 6279 (Table 5), 6355 (Table 6), 6359 (Table 7), 6369 (Table 8), and 6421 (Table 9).

A further assay deals with SF-295. In words: Single dose cell viability assay, SF-295. It is filed as cell-based. The conditions noted are these: SF-295 (CNS), single dose 25 μM. Here is the method: as §1
The test system of the next assay is KM12. The assay is described as follows: Single dose cell viability assay, KM12. The format is cell-based. The conditions noted are these: KM12 (Colon), single dose 25 μM. The procedure: as §1
A further assay concerns the target T1, PLK1 PBD (367-603) (Homo sapiens, UniProt P53350).
T1 construct: PLK1 PBD (367-603) and PLK3 PBD (335-646) proteins were obtained from BPS Biosciences Inc; purchased BPS Biosciences Inc. (San Diego, CA)
In words: Fluorescence polarization assay, PLK1 PBD. The format is binding. The conditions noted are these: fluorescence polarization; read-out: PLK1 PBD IC50. Here is the method: (§2) Materials were dissolved in DMSO (10 mM) and diluted from 10 nM to 600 μM (maximum of 6% DMSO tolerance in the assay). PLK1 PBD (367-603) and PLK3 PBD (335-646) proteins were obtained from BPS Biosciences Inc. (San Diego, CA); 17 ng PLK1 and 156 ng PLK3 were used per reaction. The fluorescein-tracer phospho-peptides (MAGPMQS[pT]PLNGAKK (SEQ ID NO: 1) for PLK1, and GPLATS[pT]PKNG (SEQ ID NO: 2) for PLK3) were used at a final concentration of 10 nM. Incubation was carried out at room temperature for 45 minutes. Fluorescence was measured using a DTX 880 plate reader and Multimode Analysis software (Beckman Coulter, Brea, CA). The polarization values in millipolarization (mP) units were measured at an excitation wavelength of 488 nm and an emission wavelength of 535 nm. Each data point was performed in triplicate for every experiment, and experiments were performed at least three times. An IC50 value for each compound was calculated from linear regression analysis of the plots.
On the technique in general: Polarisation of emitted light reports the rotation of a fluorescent probe.

Another assay concerns K-562. The assay is described as follows: Single dose cell viability assay, K-562. The format is cell-based. The conditions noted are these: K-562 (Leukemia), single dose 25 μM. The procedure: as §1
In the next assay the test system is HCT-15. In words: Single dose cell viability assay, HCT-15. It is filed as cell-based. The conditions noted are these: HCT-15 (Colon), single dose 25 μM. Here is the method:
as §1

The test system of the next assay is PC-3. The assay is described as follows: Single dose cell viability assay, PC-3. Conditions: PC-3 (Prostate), single dose 25 μM. It is filed as cell-based. Here is the method:
as §1

For another assay, the system named is HOP-92. The assay is described as follows: Single dose cell viability assay, HOP-92. The conditions noted are these: HOP-92 (NSCLC), single dose 25 μM. The format is cell-based. The procedure:
as §1

Another assay deals with ACHN. The assay is described as follows: Single dose cell viability assay, ACHN. It is filed as cell-based. Conditions: ACHN (Renal), single dose 25 μM. The procedure:
as §1

The subject of the next assay is NCI-H522. The assay is described as follows: Single dose cell viability assay, NCI-H522. The format is cell-based. Conditions: NCI-H522 (NSCLC), single dose 25 μM. Here is the method:
as §1

Another assay deals with CCRF-CEM. The assay is described as follows: Single dose cell viability assay, CCRF-CEM. It is filed as cell-based. Conditions: CCRF-CEM (Leukemia), single dose 25 μM. Here is the method: as §1
For the next assay, the system named is RPMI-8226. The assay is described as follows: Single dose cell viability assay, RPMI-8226. The format is cell-based. The conditions noted are these: RPMI-8226 (Leukemia), single dose 25 μM. The procedure: as §1
In another assay the test system is U251. In words: Single dose cell viability assay, U251. It is filed as cell-based. Conditions: U251 (CNS), single dose 25 μM. The procedure: as §1
The test system of another assay is NCI-H460. The assay is described as follows: Single dose cell viability assay, NCI-H460. It is filed as cell-based. The conditions noted are these: NCI-H460 (NSCLC), single dose 25 μM. The procedure: as §1
For a further assay, the system named is SR. The assay is described as follows: Single dose cell viability assay, SR. The conditions noted are these: SR (Leukemia), single dose 25 μM. The format is cell-based. Here is the method:
as §1

The subject of a further assay is A549/ATCC. In words: Single dose cell viability assay, A549/ATCC. The format is cell-based. Conditions: A549/ATCC (NSCLC), single dose 25 μM. The procedure:
as §1

The target of another assay is PLK1 (Homo sapiens, UniProt P53350). The assay is described as follows: PLK1 degradation in SH-SY5Y cells. It is filed as cell-based. More on the design: endogenous in cells. Here is the method: (§3) Abbapolin compounds activity was evaluated in neuroblastoma cells. […] Further, abbapolins induced PLK1 degradation in SH-SY5Y cells (FIG. 14-16).
PLK1, sequence (P53350 whole entry): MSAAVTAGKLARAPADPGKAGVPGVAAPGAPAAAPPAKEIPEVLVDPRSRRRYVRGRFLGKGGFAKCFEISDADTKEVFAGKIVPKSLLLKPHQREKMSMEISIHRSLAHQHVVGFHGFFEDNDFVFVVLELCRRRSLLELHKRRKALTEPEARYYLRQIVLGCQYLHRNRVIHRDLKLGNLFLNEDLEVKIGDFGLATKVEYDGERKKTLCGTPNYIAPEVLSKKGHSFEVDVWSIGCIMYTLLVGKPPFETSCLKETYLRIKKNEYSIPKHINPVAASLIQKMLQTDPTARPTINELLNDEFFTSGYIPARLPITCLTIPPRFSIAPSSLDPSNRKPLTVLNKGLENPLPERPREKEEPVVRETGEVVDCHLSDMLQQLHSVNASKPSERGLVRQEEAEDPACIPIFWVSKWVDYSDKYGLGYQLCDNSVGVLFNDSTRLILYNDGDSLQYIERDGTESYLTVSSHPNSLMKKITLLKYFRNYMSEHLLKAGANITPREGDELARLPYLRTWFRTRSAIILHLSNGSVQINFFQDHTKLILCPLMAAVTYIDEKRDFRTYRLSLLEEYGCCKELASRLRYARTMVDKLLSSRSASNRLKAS
The next assay deals with MOLT-4. In words: Single dose cell viability assay, MOLT-4. It is filed as cell-based. Conditions: MOLT-4 (Leukemia), single dose 25 μM. The procedure:
as §1

Assay [1] has as its system SH-SY5Y neuroblastoma cells overexpressing PLK1. In words: Cell viability assay in neuroblastoma cells. The format is cell-based. Conditions: Homo sapiens, SH-SY5Y. Here is the method: as §3
A further assay deals with HCT-116. In words: Single dose cell viability assay, HCT-116. The format is cell-based. Conditions: HCT-116 (Colon), single dose 25 μM. Here is the method:
as §1

The target in a further assay is T2, PLK3 PBD (335-646) (Homo sapiens, UniProt Q9H4B4).
T2 construct: PLK1 PBD (367-603) and PLK3 PBD (335-646) proteins were obtained from BPS Biosciences Inc; purchased BPS Biosciences Inc. (San Diego, CA)
T2 sequence (Q9H4B4 335-646): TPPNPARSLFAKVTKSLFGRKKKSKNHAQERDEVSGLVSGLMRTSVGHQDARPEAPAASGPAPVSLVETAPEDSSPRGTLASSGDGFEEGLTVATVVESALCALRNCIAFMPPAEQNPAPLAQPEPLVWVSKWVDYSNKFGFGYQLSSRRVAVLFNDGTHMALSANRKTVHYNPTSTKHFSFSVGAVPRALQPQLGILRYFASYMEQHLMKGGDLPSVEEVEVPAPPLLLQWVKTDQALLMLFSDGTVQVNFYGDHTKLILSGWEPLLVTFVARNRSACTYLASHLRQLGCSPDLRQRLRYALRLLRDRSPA
In words: Fluorescence polarization assay, PLK3 PBD. The format is binding. The procedure:
as §2

Another assay concerns LOX IMVI. In words: Single dose cell viability assay, LOX IMVI. It is filed as cell-based. Conditions: single dose 25 μM, 48 hours. Here is the method: as §1
In another assay the test system is HL-60(TB). The assay is described as follows: Single dose cell viability assay, HL-60(TB). The format is cell-based. The conditions noted are these: HL-60(TB) (Leukemia), single dose 25 μM. Here is the method:
as §1

For a further assay, the system named is EKVX. In words: Single dose cell viability assay, EKVX. Conditions: EKVX (NSCLC), single dose 25 μM. It is filed as cell-based. The procedure: as §1
A further assay concerns SK-MEL-5. The assay is described as follows: Single dose cell viability assay, SK-MEL-5. It is filed as cell-based. Conditions: SK-MEL-5 (Melanoma), single dose 25 μM. Here is the method: as §1
The test system of the next assay is MCF7. The assay is described as follows: Single dose cell viability assay, MCF7. The format is cell-based. Conditions: MCF7 (Breast), single dose 25 μM. The procedure: as §1
For another assay, the system named is SK-MEL-2. The assay is described as follows: Single dose cell viability assay, SK-MEL-2. It is filed as cell-based. Conditions: SK-MEL-2 (Melanoma), single dose 25 μM. Here is the method:
as §1

A further assay relates to MDA-MB-468. The assay is described as follows: Single dose cell viability assay, MDA-MB-468. It is filed as cell-based. The conditions noted are these: MDA-MB-468 (Breast), single dose 25 μM. The procedure: as §1
In another assay the test system is UACC-62. The assay is described as follows: Single dose cell viability assay, UACC-62. It is filed as cell-based. Conditions: UACC-62 (Melanoma), single dose 25 μM. The procedure: as §1
The subject of another assay is UO-31. In words: Single dose cell viability assay, UO-31. It is filed as cell-based. Conditions: UO-31 (Renal), single dose 25 μM. The procedure: as §1
A further assay relates to NCI-H226. In words: Single dose cell viability assay, NCI-H226. It is filed as cell-based. Conditions: NCI-H226 (NSCLC), single dose 25 μM. Here is the method:
as §1

The test system of a further assay is NCI-H23. The assay is described as follows: Single dose cell viability assay, NCI-H23. It is filed as cell-based. Conditions: NCI-H23 (NSCLC), single dose 25 μM. The procedure: as §1
In the next assay the test system is T-47D. In words: Single dose cell viability assay, T-47D. It is filed as cell-based. The conditions noted are these: T-47D (Breast), single dose 25 μM. Here is the method: as §1

By IC50 is commonly meant the midpoint of a concentration-inhibition curve. Broadly, the inhibition is the change of the read-out against control, counted positive when it falls.

T1 sequence (P53350 367-603): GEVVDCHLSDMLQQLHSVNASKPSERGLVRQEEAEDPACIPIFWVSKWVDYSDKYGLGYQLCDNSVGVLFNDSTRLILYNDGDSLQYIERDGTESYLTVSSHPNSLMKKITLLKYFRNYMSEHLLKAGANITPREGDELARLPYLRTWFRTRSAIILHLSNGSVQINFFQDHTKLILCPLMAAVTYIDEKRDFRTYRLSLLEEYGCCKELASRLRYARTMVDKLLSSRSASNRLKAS

As to `CCCCCCCCc1ccc(C(=O)Nc2ccc(C)cc2C(=O)O)cc1O` [compound 6279], the “Cells Remaining (%)” value worked out at 43.49% with SNB-19; 59.38% with SF-295; 52.19% in the assay on KM12; 49.7% in the assay with K-562; 56.83% with HCT-15; 58.63% in the assay on PC-3. Also, the “Cells Remaining (%)” value in the assay with HOP-92 is 57.85%; in the assay with ACHN, 61.79%; in the assay on NCI-H522 it was 59.89%; in the assay with CCRF-CEM it was 55.59%; in the assay with RPMI-8226, 63.91%; in the assay with U251, 45.14%. Moreover, the IC50 on PLK1 PBD (367-603) was 31.8 µM.
Regarding `CCCCCCCCc1cccc(CC(=O)Nc2ccc(C)cc2C(=O)O)c1` [compound 6277], the “Cells Remaining (%)” value is 20.45% in the assay on NCI-H460; 31.08% with SR; 31.38% with A549/ATCC; 28.94% with K-562; 13.2% in the assay on HCT-15; 17.93% with MOLT-4. Also, the “Cells Remaining (%)” value worked out at 28.14% in the assay with HCT-116, 26.74% in the assay with CCRF-CEM, 25.43% with RPMI-8226 and 3.4% in the assay with LOX IMVI (LOX IMVI (Melanoma)). Further, the half-inhibitory concentration (IC50) on PLK1 PBD (367-603) amounted to 19.7 µM; in assay [1], 5.25 ± 0.5 µM; at PLK3 PBD (335-646), 29.4 µM. For the same compound, the PLK1 degradation result at PLK1 is listed as “degradation of PLK1”. The inhibition at 25 µM in the assay with LOX IMVI (Homo sapiens, LOX IMVI, from cells remaining) is 96.4%.
As for `CCCCCCCCc1ccc(C(=O)Nc2ccccc2O)cc1` [compound 6421], the “Cells Remaining (%)” value is 69.66% in the assay with HL-60(TB); 52.89% in the assay on EKVX; 53.71% in the assay with K-562; 70.42% in the assay with SK-MEL-5; 35.21% with MCF7; 58.2% in the assay on MOLT-4. For the same compound, the “Cells Remaining (%)” value with NCI-H522 was 70.52%; with SK-MEL-2, 38.46%; in the assay with CCRF-CEM, 37.43%; with MDA-MB-468, 45.03%; in the assay with UACC-62, 69.99%; with UO-31 it was 59.4%. Further, the “Cells Remaining (%)” value in the assay with RPMI-8226 is 48.98%; in the assay on NCI-H226 it was 66.21%; with NCI-H23 it was 62.07%; in the assay on T-47D it was 27.32%.
